Experimental data: patent publication US12404283B2, “c-MYC mRNA translation modulators and uses thereof in the treatment of cancer” (Anima Biotech Inc., priority 2022, dated 2025)
Structures can show the parent of a compound that is named as a salt.

Each compound was assayed on c-Myc (assay: c-Myc immunofluorescence assay). Settings: A549 cells, 24 hours treatment, anti-c-Myc immunofluorescence.
Type: cell-based, human
How it was run: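 A549 cells grown 48 h, exposed 24 h to rising compound concentrations, then fixed, permeabilised and stained for c-Myc plus DAPI. Nuclear-segmented c-Myc fluorescence quantified by high-content imaging at 20×; EC50 from logistic dose–response fits.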

| SMILES | Myc Efficacy (−LogEC50) |
| --- | --- |
| CCNC(=O)c1ccc(-c2cn3c(n2)sc2cc(C(=O)NCCCN(CC)CC)ccc23)cc1 [compound 282, N-(3-(diethylamino)propyl)-2-(4-(ethylcarbamoyl)phenyl) benzo[d]imidazo[2,1-b]thiazole-7-carboxamide] | + (+ >3 and <5) |
| CNC(=O)c1ccc2c(c1)sc1nc(-c3ccc([C@H]4C[C@H](O)CN4)cc3F)cn12 (relative stereo) [Compound 544, 2-(2-fluoro-4-((trans)-4-hydroxypyrrolidin-2-yl)phenyl)-N-methylbenzo[d]imidazo[2,1-b]thiazole-7-carboxamide] | +++ (+++ ≥6) |
| O=C(NCCCN1CCC(F)CC1)c1ccc2c(c1)sc1nc(-c3ccc(C4CCCNC4)cc3F)cn12 (stereo not shown) [Compound 513, 2-(2-fluoro-4-(piperidin-3-yl)phenyl)-N-(3-(4-fluoropiperidin-1-yl)propyl)benzo[d]imidazo[2,1-b]thiazole-7-carboxamide] | +++ (+++ ≥6) |
| CCN(CC)CCCNC(=O)c1ccc2c(c1)sc1nc(-c3ccc(-c4ncc[nH]4)cc3)cn12 [compound 268, 2-(4-(1H-imidazol-2-yl)phenyl)-N-(3-(diethylamino)propyl) benzo[d]imidazo[2,1-b] thiazole-7-carboxamide] | + (+ >3 and <5) |
| O=C(NCCCN1CCCCC1)c1ccc2c(c1)sc1nc(-c3ccncc3)cn12 [compound 306, N-(3-(piperidin-1-yl)propyl)-2-(pyridin-4-yl)benzo[d]imidazo[2,1-b]thiazole-7-carboxamide] | ++ (++ ≥5 and <6) |
| Cc1cccc(-c2cn3c(n2)sc2cc(C(=O)NCCCNCC(F)(F)F)ccc23)c1 [compound 178, 2-(m-tolyl)-N-(3-((2,2,2-trifluoroethyl)amino)propyl) benzo[d]imidazo[2,1-b]thiazole-7-carboxamide] | + (+ >3 and <5) |
| CN1CCC(NC(=O)c2ccc3c(c2)sc2nc(-c4ccc(C5CCCN5)cc4F)cn23)CC1 (stereo not shown) [Compound 500, 2-(2-fluoro-4-(pyrrolidin-2-yl)phenyl)-N-(1-methylpiperidin-4-yl)benzo[d]imidazo[2,1-b]thiazole-7-carboxamide] | +++ (+++ ≥6) |
| CN1CCC(NC(=O)c2ccc3c(c2)sc2nc(-c4ccc(C5CC(C#N)CN5)cc4F)cn23)CC1 (stereo not shown) [compound 541, 2-(4-(4-cyanopyrrolidin-2-yl)-2-fluorophenyl)-N-(1-methylpiperidin-4-yl)benzo[d]imidazo[2,1-b]thiazole-7-carboxamide] | +++ (+++ ≥6) |
| O=C(NCCCN1CCC(F)CC1)c1ccc2c(c1)sc1nc(-c3ccc(C4(O)CCNCC4)cc3F)cn12 [Compound 512, 2-(2-fluoro-4-(4-hydroxypiperidin-4-yl)phenyl)-N-(3-(4-fluoropiperidin-1-yl)propyl)benzo[d]imidazo[2,1-b]thiazole-7-carboxamide] | +++ (+++ ≥6) |
| CCN(CC)CCCNC(=O)c1ccc2c(c1)sc1nc(-c3ccc(C(=O)NCCOC)cc3)cn12 [compound 284, N-(3-(diethylamino)propyl)-2-(4-((2-methoxyethyl)carbamoyl)phenyl)benzo[d]imidazo[2,1-b]thiazole-7-carboxamide] | + (+ >3 and <5) |
| NCc1ccc(-c2cn3c(n2)sc2cc(C(=O)NCCCN4CCCCC4)ccc23)cc1F [compound 375, 2-(4-(aminomethyl)-3-fluorophenyl)-N-(3-(piperidin-1-yl)propyl)benzo[d]imidazo [2,1-b]thiazole-7-carboxamide] | +++ (+++ ≥6) |
| O=C(NCCCN1CCC(F)CC1)c1ccc2c(c1)sc1nc(-c3ccc(C4CCNO4)cc3F)cn12 (stereo not shown) [Compound 543, 2-(2-fluoro-4-(isoxazolidin-5-yl)phenyl)-N-(3-(4-fluoropiperidin-1-yl)propyl)benzo[d]imidazo[2,1-b]thiazole-7-carboxamide] | +++ (+++ ≥6) |
| CCN(CC)CCCNC(=O)c1ccc2c(c1)sc1nc(-c3ccc(CNC4CC4)cc3F)cn12 [compound 331, 2-(4-((cyclopropylamino)methyl)-2-fluorophenyl)-N-(3-(diethylamino)propyl)benzo [d]imidazo[2,1-b]thiazole-7-carboxamide] | +++ (+++ ≥6) |
| CCc1ccc(-c2cn3c(n2)sc2cc(C(=O)NCCCN(CC)CC)ccc23)cc1 [compound 126, N-(3-(diethylamino)propyl)-2-(4-ethylphenyl)benzo[d] imidazo[2,1-b]thiazole-7-carboxamide] | ++ (++ ≥5 and <6) |
| CCN(CC)CCCNC(=O)c1ccc2c(c1)sc1nc(-c3ccc([C@H]4CCCN4)cc3)cn12 [compound 414, (R)-N-(3-(diethylamino)propyl)-2-(4-(pyrrolidin-2-yl)phenyl)benzo[d]imidazo [2,1-b]thiazole-7-carboxamide] | +++ (+++ ≥6) |
| O=C1CNC(c2ccc(-c3cn4c(n3)sc3cc(C(=O)NC5CCOCC5)ccc34)c(F)c2)C1 (stereo not shown) [Compound 537, 2-(2-fluoro-4-(4-oxopyrrolidin-2-yl)phenyl)-N-(tetrahydro-2H-pyran-4-yl)benzo[d]imidazo[2,1-b]thiazole-7-carboxamide] | +++ (+++ ≥6) |
| CNC(=O)c1ccc(-c2cn3c(n2)sc2cc(C(=O)N[C@H](C)C4CC4)ccc23)cc1 [compound 274, (R)-N-(1-cyclopropylethyl)-2-(4-(methylcarbamoyl)phenyl) benzo[d]imidazo[2,1-b]thiazole-7-carboxamide] | + (+ >3 and <5) |
| O=C(NCCCN1CCCCC1)c1ccc2c(c1)sc1nc(-c3ccc(CNC4CC4)cc3F)cn12 [compound 368, 2-(4-((cyclopropylamino)methyl)-2-fluorophenyl)-N-(3-(piperidin-1-yl)propyl)benzo[d]imidazo [2,1-b]thiazole-7-carboxamide] | +++ (+++ ≥6) |
| O=C(NC1CCOCC1)c1ccc2c(c1)sc1nc(-c3ccc([C@H]4C[C@@H](O)CN4)cc3F)cn12 (relative stereo) [Compound 533, 2-(2-fluoro-4-((cis)-4-hydroxypyrrolidin-2-yl)phenyl)-N-(tetrahydro-2H-pyran-4-yl)benzo[d]imidazo[2,1-b]thiazole-7-carboxamide] | +++ (+++ ≥6) |
| O=C(NCCCN1CCCCC1)c1ccc2c(c1)sc1nc(-c3ccc(C4COC4)cc3)cn12 [compound 315, 2-(4-(oxetan-3-yl)phenyl)-N-(3-(piperidin-1-yl)propyl)benzo[d]imidazo [2,1-b]thiazole-7-carboxamide] | ++ (++ ≥5 and <6) |
| Cc1c(-c2ccc([C@@H]3CCCN3)cc2F)nc2sc3cc(C(=O)NCCCN4CCC(F)CC4)ccc3n12 [Compound 464S, (S)-2-(2-fluoro-4-(pyrrolidin-2-yl)phenyl)-N-(3-(4-fluoropiperidin-1-yl)propyl)-3-methylbenzo[d]imidazo[2,1-b]thiazole-7-carboxamide dihydrochloride] | +++ (+++ ≥6) |
| CCN(CC)CCCNC(=O)c1ccc2c(c1)sc1nc(-c3ccc(C(=O)NCCO)cc3)cn12 [compound 285, N-(3-(diethylamino)propyl)-2-(4-((2-hydroxyethyl)carbamoyl)phenyl)benzo[d]imidazo[2,1-b]thiazole-7-carboxamide] | + (+ >3 and <5) |
